The values that follow come from patent publication US20250171459A1, “2-METHYL-4',5'-DIHYDROSPIRO[PIPERIDINE-4,7'-THIENO[2,3-C]PYRAN] DERIVATIVES AS INHIBITORS OF APOL1 AND METHODS OF USING SAME” (Vertex Pharmaceuticals Incorporated, priority 2022, published 2025).

Bounds are passed on as bounds.

The target in this test is T1, APOL1 (Homo sapiens, UniProt O14791).
T1 sequence (O14791 1-398 S342G/I384M): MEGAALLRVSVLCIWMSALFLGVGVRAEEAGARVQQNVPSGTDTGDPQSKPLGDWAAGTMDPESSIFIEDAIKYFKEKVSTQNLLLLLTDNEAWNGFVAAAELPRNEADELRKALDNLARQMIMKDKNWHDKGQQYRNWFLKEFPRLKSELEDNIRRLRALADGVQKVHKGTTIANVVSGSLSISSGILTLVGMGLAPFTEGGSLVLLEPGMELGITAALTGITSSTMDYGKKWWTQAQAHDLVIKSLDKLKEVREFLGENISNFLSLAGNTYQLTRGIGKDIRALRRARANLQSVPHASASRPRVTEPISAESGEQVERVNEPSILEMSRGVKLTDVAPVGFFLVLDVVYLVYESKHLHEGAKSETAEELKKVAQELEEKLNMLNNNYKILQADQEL
As to the kind of experiment: MultiTox-Fluor Multiplex Cytotoxicity Assay in tet-inducible APOL1 T-REx-HEK293 cells (cell rescue, ratio of dead to live cells). The settings on record: tet-inducible transgenic APOL1 T-REx-HEK293 cell lines, 50 ng/mL tet, 24 hours; read-out: IP50 (i.e., IC50 for cell proliferation). Format: cell-based. The gist of the method:
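T-REx-HEK293 cells with tet-inducible APOL1 were treated with compound (10 μM top, 10-point 3-fold dilution, duplicate) plus 50 ng/mL tetracycline for 24 h at 37° C, in DMEM with 2% tet-free FBS. MultiTox-Fluor protease signals gave a dead/live ratio, normalized to no tet (100% viability) and tet alone (0%).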
As to `C[C@H]1C[C@@]2(CCN1Cc1cn(CC(O)C(C)(C)O)nn1)OC[C@@](O)(C(F)F)c1cc(Cl)sc12` (stereo partly drawn) [Compound 836, 1-[4-[[(2′S,4R,7R)-2-chloro-4-(difluoromethyl)-4-hydroxy-2′-methyl-spiro[5H-thieno[2,3-c]pyran-7,4′-piperidine]-1′-yl]methyl]triazol-1-yl]-3-methyl-butane-2,3-diol], the IC50 is less than 0.1 µM.
To `CC(O)Cn1cc(CN2CC[C@]3(C[C@@H]2C)OC[C@](O)(C(F)F)c2cc(Cl)sc23)nn1` (stereo partly drawn) [Compound 837] belongs less than 0.1 µM; to `C[C@H]1C[C@@]2(CCN1Cc1cn(CC(C)(C)CO)nn1)OC[C@](O)(C(F)F)c1cc(Cl)sc12` [Compound 838], 0.5 to 1 µM.
Consider `C[C@H]1C[C@@]2(CCN1Cc1cn(CCCS(C)(=O)=O)nn1)OC[C@](O)(C(F)F)c1cc(Cl)sc12` [Compound 839], for which the IC50 is less than 0.1 µM.
With `C[C@H]1C[C@@]2(CCN1Cc1cn(CC(C)(CO)CO)nn1)OC[C@](O)(C(F)F)c1cc(Cl)sc12` [Compound 840] the figure was less than 0.1 µM; with `C[C@H]1C[C@@]2(CCN1Cc1cn(C3CCOCC3)nn1)OC[C@](O)(C(F)F)c1cc(Cl)sc12` [Compound 841], less than 0.1 µM; with `CCOC1CO[C@@]2(CCN(Cc3cnn(CCS(C)(=O)=O)c3)[C@@H](C)C2)c2sc(Cl)cc21` (stereo partly drawn) [Compound 844], 0.1 to 0.5 µM.
To `CC(C)OC1CO[C@@]2(CCN(Cc3cnn(CCS(C)(=O)=O)c3)[C@@H](C)C2)c2sc(Cl)cc21` (stereo partly drawn) [Compound 845] belongs 0.1 to 0.5 µM; to `[2H]C([2H])([2H])OC1CO[C@@]2(CCN(Cc3cnn(CCS(C)(=O)=O)c3)[C@@H](C)C2)c2sc(Cl)cc21` (stereo partly drawn) [Compound 846], less than 0.1 µM.
In the case of `CC(=O)OC1CO[C@@]2(CCN(Cc3cnn(CCS(C)(=O)=O)c3)[C@@H](C)C2)c2sc(Cl)cc21` (stereo partly drawn) [Compound 847, [(2′S, 7R)-2-chloro-2′-methyl-1′-[[1-(2-methylsulfonylethyl)pyrazol-4-yl]methyl]spiro[4,5-dihydrothieno[2,3-c]pyran-7,4′-piperidine]-4-yl]acetate], the IC50 is less than 0.1 µM.
With `C[C@H]1C[C@@]2(CCN1Cc1cnn(C)c1)OCC(C)(O)c1cc(Cl)sc12` (stereo partly drawn) [Compound 848, (2′S, 7R)-2-chloro-2′,4-dimethyl-1′-[(1-methylpyrazol-4-yl)methyl]spiro[5H-thieno[2,3-c]pyran-7,4′-piperidine]-4-ol] the figure was less than 0.1 µM; with `C[C@H]1C[C@@]2(CCN1Cc1cnn(C)c1)OCC(O)(c1ccccc1)c1cc(Cl)sc12` (stereo partly drawn) [Compound 849, (2′S,7R)-2-chloro-2′-methyl-1′-[(1-methylpyrazol-4-yl)methyl]-4-phenyl-spiro[5H-thieno[2,3-c]pyran-7,4′-piperidine]-4-ol], 0.1 to 0.5 µM.
With `C[C@H]1C[C@@]2(CCN1Cc1cnn(C)c1)OCC(O)(c1ccccc1)c1cc(Cl)sc12` (stereo partly drawn) [Compound 850, (2′S,7R)-2-chloro-2′-methyl-1′-[(1-methylpyrazol-4-yl)methyl]-4-phenyl-spiro[5H-thieno[2,3-c]pyran-7,4′-piperidine]-4-ol] the figure was 0.1 to 0.5 µM; with `C[C@H]1C[C@@]2(CCN1Cc1cnn(CCS(C)(=O)=O)c1)OCC(O)(C(F)(F)F)c1cc(Cl)sc12` (stereo partly drawn) [Compound 852, (2′S,7R)-2-chloro-2′-methyl-1′-[[1-(2-methylsulfonylethyl)pyrazol-4-yl]methyl]-4-(trifluoromethyl)spiro[5H-thieno[2,3-c]pyran-7,4′-piperidine]-4-ol], less than 0.1 µM.
Consider `C[C@H]1C[C@@]2(CCN1Cc1cnn(CCS(C)(=O)=O)c1)OCC(N1C(=O)c3ccccc3C1=O)c1cc(Cl)sc12` (stereo partly drawn) [Compound 853, 2-[(2′S, 7R)-2-chloro-2′-methyl-1′-[[1-(2-methylsulfonylethyl)pyrazol-4-yl]methyl]spiro[4,5-dihydrothieno[2,3-c]pyran-7,4′-piperidine]-4-yl]isoindoline-1,3-dione], for which the IC50 was 0.1 to 0.5 µM.
With `C[C@H]1C[C@@]2(CCN1Cc1cnn(CCS(C)(=O)=O)c1)OCC(N)c1cc(Cl)sc12` (stereo partly drawn) [Compound 854, (2′S, 7R)-2-chloro-2′-methyl-1′-[[1-(2-methylsulfonylethyl)pyrazol-4-yl]methyl]spiro[4,5-dihydrothieno[2,3-c]pyran-7,4′-piperidine]-4-amine] the figure was less than 0.1 µM.
`CC(=O)NC1CO[C@@]2(CCN(Cc3cnn(CCS(C)(=O)=O)c3)[C@@H](C)C2)c2sc(Cl)cc21` (stereo partly drawn) [Compound 855, N-[(2′S, 7R)-2-chloro-2′-methyl-1′-[[1-(2-methylsulfonylethyl)pyrazol-4-yl]methyl]spiro[4,5-dihydrothieno[2,3-c]pyran-7,4′-piperidine]-4-yl]acetamide]: the IC50 is less than 0.1 µM.
As to `C[C@H]1C[C@@]2(CCN1Cc1cnn(CCS(C)(=O)=O)c1)OCC(C#N)c1cc(Cl)sc12` (stereo partly drawn) [Compound 856, (2′S, 7R)-2-chloro-2′-methyl-1′-[[1-(2-methylsulfonylethyl)pyrazol-4-yl]methyl]spiro[4,5-dihydrothieno[2,3-c]pyran-7,4′-piperidine]-4-carbonitrile], the IC50 was less than 0.1 µM.
In the case of `CC(=O)N(C)C1CO[C@@]2(CCN(Cc3cnn(CCS(C)(=O)=O)c3)[C@@H](C)C2)c2sc(Cl)cc21` (stereo partly drawn) [Compound 857, N-[(2′S, 7R)-2-chloro-2′-methyl-1′-[[1-(2-methylsulfonylethyl)pyrazol-4-yl]methyl]spiro[4,5-dihydrothieno[2,3-c]pyran-7,4′-piperidine]-4-yl]-N-methyl-acetamide], the IC50 was less than 0.1 µM.
Consider `Cc1c(Cl)sc2c1C(O)CO[C@@]21CCN(Cc2cnn(CCS(C)(=O)=O)c2)[C@@H](C)C1` (stereo partly drawn) [Compound 858, (2′S, 7R)-2-chloro-2′,3-dimethyl-1′-[[1-(2-methylsulfonylethyl)pyrazol-4-yl]methyl]spiro[4,5-dihydrothieno[2,3-c]pyran-7,4′-piperidine]-4-ol], for which the IC50 is less than 0.1 µM.
For `C[C@H]1C[C@@]2(CCN1Cc1cnn(CCS(C)(=O)=O)c1)OCC(O)c1c2sc(Cl)c1Cl` (stereo partly drawn) [Compound 860, (2′S, 7R)-2,3-dichloro-2′-methyl-1′-[[1-(2-methylsulfonylethyl)pyrazol-4-yl]methyl]spiro[4,5-dihydrothieno[2,3-c]pyran-7,4′-piperidine]-4-ol], the IC50 is less than 0.1 µM.
For the compound `C[C@H]1C[C@@]2(CCN1Cc1cnn(CCS(C)(=O)=O)c1)OCC(O)c1c2sc(Cl)c1Cl` (stereo partly drawn) [Compound 861, (2S,4R)-2′,3′-dichloro-2-methyl-1-((1-(2-(methylsulfonyl)ethyl)-1H-pyrazol-4-yl)methyl)-4′l3-spiro[piperidine-4,7′-thieno[3,2-d]pyran]-4′(5′H)-ol], the IC50 fell in the range of 0.1 to 0.5 µM.
In the case of `C[C@H]1C[C@@]2(CCN1Cc1cn(CCS(C)(=O)=O)nn1)OCC(F)(F)c1cc(Cl)sc12` [Compound 862, (2S,4R)-2′-chloro-4′,4′-difluoro-2-methyl-1-((1-(2-(methylsulfonyl)ethyl)-1H-1,2,3-triazol-4-yl)methyl)-4′,5′-dihydrospiro[piperidine-4,7′-thieno[2,3-c]pyran]], the IC50 was in the range of 0.1 to 0.5 µM.
For the compound `C[C@H]1C[C@@]2(CCN1Cc1cn(CCS(C)(=O)=O)nn1)OCC(F)c1cc(Cl)sc12` (stereo partly drawn) [Compound 863, (2S,4R)-2′-chloro-4′-fluoro-2-methyl-1-((1-(2-(methylsulfonyl)ethyl)-1H-1,2,3-triazol-4-yl)methyl)-4′,5′-dihydrospiro[piperidine-4,7′-thieno[2,3-c]pyran]], the IC50 was in the range of 0.1 to 0.5 µM.
As to `C[C@H]1C[C@@]2(CCN1C1CCCC1O)OCCc1cc(C(F)(F)F)sc12` (stereo partly drawn) [Compound 864, 2-[(2′S,7R)-2′-methyl-2-(trifluoromethyl)spiro[4,5-dihydrothieno[2,3-c]pyran-7,4′-piperidine]-1′-yl]cyclopentanol], the IC50 was in the range of 0.1 to 0.5 µM.
As to `C[C@H]1C[C@@]2(CCN1C1CCCC1O)OCCc1cc(C(F)(F)F)sc12` (stereo partly drawn) [Compound 865, 2-[(2′S,7R)-2′-methyl-2-(trifluoromethyl)spiro[4,5-dihydrothieno[2,3-c]pyran-7,4′-piperidine]-1′-yl]cyclopentanol], the IC50 lay in the range of 0.1 to 0.5 µM.
As for `C[C@H]1C[C@@]2(CCN1C1COCC1O)OCCc1cc(C(F)(F)F)sc12` (stereo partly drawn) [Compound 866, 4-[(2′S, 7R)-2′-methyl-2-(trifluoromethyl)spiro[4,5-dihydrothieno[2,3-c]pyran-7,4′-piperidine]-1′-yl]tetrahydrofuran-3-ol], the IC50 lay in the range of 0.1 to 0.5 µM.
Take `C[C@H]1C[C@@]2(CCN1C[C@H](O)C(N)=O)OCCc1cc(C(F)(F)F)sc12` [Compound 867, (2S)-2-hydroxy-3-[(2′S,7R)-2′-methyl-2-(trifluoromethyl)spiro[4,5-dihydrothieno[2,3-c]pyran-7,4′-piperidine]-1′-yl]propanamide]: the IC50 lay in the range of 0.1 to 0.5 µM.
Regarding `CNC(=O)[C@@H](O)CN1CC[C@]2(C[C@@H]1C)OCCc1cc(C(F)(F)F)sc12` [Compound 869, (2S)-2-hydroxy-N-methyl-3-[(2′S, 7R)-2′-methyl-2-(trifluoromethyl)spiro[4,5-dihydrothieno[2,3-c]pyran-7,4′-piperidine]-1′-yl]propanamide], the IC50 is 0.5 to 1 µM.
In the case of `C[C@H]1C[C@@]2(CCN1Cc1cn(CCS(C)(=O)=O)nn1)OCCc1cc(C(F)(F)F)sc12` [Compound 870, (2′S, 7R)-2′-methyl-1′-[[1-(2-methylsulfonylethyl)triazol-4-yl]methyl]-2-(trifluoromethyl)spiro[4,5-dihydrothieno[2,3-c]pyran-7,4′-piperidine]], the IC50 was less than 0.1 µM.
